Assay results as given in patent US20070105721A1, “Vinylogous 4-Hpyrones and their use in promoting plant growth” (priority 2003, published 2007).

Tests used:
Assay type in all cases: in vivo
[1] = system: Grand Rapids Lettuce seeds (Waltham strain); experiment: Grand Rapids bioassay; conditions: for Germination, Grand Rapids: compounds isolated from smoke, mean (SEM)
Method: Grand Rapids Lettuce seeds (Waltham strain) were obtained from R.B. Dessert Seed Co. and were frozen in sachets until use. For testing of aqueous samples, 2.5 mL of test solution was applied to three replicates of 40-50 seeds in Petri dishes (90 mm) lined with two layers of Whatman No. 1 filter paper (7 cm). Millipore filtered water (MP water) was used as a control for each experiment and dilutions of each sample were used to ensure the optimum concentration range for activity. Fractions were reconstituted to their original concentration (before fractionation) and dilutions were made using MP water. Petri dishes were sealed with a layer of plastic wrap, and stored in a light proof container. All manipulations involving the seed were carried out in a dark room and germinants, based on the appearance of a radicle, were scored after 48 hours incubation.

[2] = system: Stylidium affine seeds; experiment: Native bioassay; conditions: compounds isolated from smoke; mean (SEM)
Method: (§1) Conostylis aculeata and Stylidium affine seeds were obtained from Nindethana seed service and stored before use. For testing of aqueous samples, three replicates of 20-30 sterilised seeds were added to UV sterilised petri dishes (90 mm), containing two Whatman No. 1 filter papers (7 cm) moistened with the filtered test solution (2.5 mL, 0.22 μm). MP water was used as a control for each experiment and dilutions of each sample were used to ensure the optimum concentration range for activity. Petri dishes were then sealed with parafilm and incubated in the dark at 20±1° C. The seeds were scored on a weekly basis with optimum germination achieved between 4-6 weeks.

[3] = system: Conostylis aculeata seeds; experiment: Native bioassay; conditions: compounds isolated from smoke; mean (SEM)
Method: as §1

[4] = 100 ppm, * = inhibits germination at this concentration

## CCOC(=O)C=C1C=COC=C1 [Compound 5a, ethyl 2-(4H-pyran-4-ylidene) acetate]
[1]; 1 ppm
  Germination of formula (5) analogues: 86.7 (±7.4)
[1]; 10 ppm
  Germination of formula (5) analogues: 94.7 (±0.4)
[1]; 100 ppb
  Germination of formula (5) analogues: 66.9 (±10.2)
[1]; [4]
  Germination of formula (5) analogues: 99.1 (±0.9)

## CCOC(=O)C(SC(C)=O)=C1C=COC=C1 [Compound 5b, ethyl 2-(acetylthio)-2-(4H-pyran-4-ylidene) acetate]
[1]; 1 ppm
  Germination of formula (5) analogues: 64.7 (±4.5)
[1]; 10 ppm
  Germination of formula (5) analogues: 82.6 (±3.4)
[1]; 100 ppb
  Germination of formula (5) analogues: 54.3 (±7.2)
[1]; [4]
  Germination of formula (5) analogues: *39.4 (±2.7)

## CC1=CC(=CC(=O)c2ccccc2)C=C(C)O1 [Compound 5c, 2-(2,6-dimethyl-4H-pyran-4-ylidene)-1-phenylethanone]
[1]; 1 ppm
  Germination of formula (5) analogues: 54.3 (±3.1)
[1]; 10 ppm
  Germination of formula (5) analogues: 69.3 (±4.4)
[1]; 100 ppb
  Germination of formula (5) analogues: 53.2 (±4.1)
[1]; [4]
  Germination of formula (5) analogues: 74.1 (±6.7)

## O=C1C=C(c2ccco2)CO1 [Compound L-1, 2,3′-bifuran-5′(2′H)-one]
[2]
  Germination, Stylidium affine: 0%
[3]
  Germination, Conostylis aculeata: 7.5 (1.3) %
[1]
  Germination, Grand Rapids: 42.4 (6.6) %

## Cc1cc(=O)oc2ccoc12 [Compound L-3, 7-methyl-5H-furo[3,2-b]pyran-5-one]
[2]
  Germination, Stylidium affine: 0%
[3]
  Germination, Conostylis aculeata: 11.6 (2.5) %
[1]
  Germination, Grand Rapids: 42.1 (1.5) %
